According to US7084239B1, “Cancer peptides of NY-ESO-1/CAG-3” (The United States of America as represented by the …, priority 1997, dated 2006):

Columns and labels:
[1] = tested on: CTL clone 2; assay: T cell recognition (GM-CSF release) of peptide-pulsed EBV B cells by CTL clone 2; type: cell-based, human; details: peptide pulsed onto 1510EBV or 586EBV B cells
Excerpt: (§1) FIGS. 7A–7C. An alternative open reading frame of the NY-ESO-1 gene and antigenic peptides recognized by CTL. FIG. 7A. Identification of antigenic peptides from the ORF2. Thirty peptides were synthesized based on all potential ORFs and screened. Representative data are shown here. Seven peptides derived from ORF2 (see FIG. 3A) were pulsed on HLA-A31 positive 1510EBV B cells and tested for T cell recognition based on GM-CSF release ([…], SEQ ID NO: 123; […], SEQ ID NO: 124; […], SEQ ID NO: 125; […], SEQ ID NO: 46; […], SEQ ID NO: 47; […], SEQ ID NO: 126; and […], SEQ ID NO: 127). 1510 EBV alone was used as a negative control. FIG. 7B. 1510EBV B cells were labeled with chromium for 2 h. The ESORF2-10-18 peptide was then pulsed on the chromium-labeled […] (solid square) and HLA-A31-negative 1102EBV (open circle) at different concentrations. 1510EBV pulsed with ESO10-53, which was recognized by CTL clone 5, was used for the specificity control (solid triangle). After peptide incubation and three washes, cytolysis of target cells by CTL-clone 2 was determined in a 4-h chromium release assay at an E:T ratio of 20:1. FIG. 7C. Several tumor lines and fresh breast tumors were tested for recognition by CTL clone 2 to determine whether the ORF2 is translated in different tumors. 1510EBV B cells pulsed with […] (SEQ ID NO: 25) (ESO10-53), […] (SEQ ID NO: 47) (ORF2-10-18), or alone were included to evaluate the reactivity and specificity of CTL clone 2 and 5. Expression of HLA-A31 on the tumor cells is indicated.
DNA transfection and GM-CSF assay were done as previously described (Wang, R. F., P. F. Robbins, Y. Kawakami, X. Q. Kang, and S. A. Rosenberg, 1995, J. Exp. Med. 181:799–804). Briefly, […] of DNA carrying a different fragment and 50 ng of the HLA-A31 DNA were mixed with 2 μl of lipofectamine in 100 μl of serum-free DMEM for 15–45 min. The DNA/lipofectamine mixture was then added to the COS-7 (5×10^4) cells and incubated overnight. The following day, cells were washed twice with DMEM medium. TIL586, CTL clone 5 or CTL clone 10 were added at a concentration of 5×10^4 cells/well in AIM-V medium containing 120 IU/ml of IL-2. After 18–24 h incubation, 100 μl of supernatant was collected and GM-CSF was measured in a standard ELISA assay (R+D Systems, Minneapolis, Minn.). […]
CTL clone 5 and TIL1244 were used for the specificity controls. […] To test the hypothesis that CTL may recognize a peptide from a gene product translated from an alternative open reading frame of the same gene, synthetic peptides were made with HLA-A31 Binding motif on the basis of amino acid sequence predicted from the second open reading frames (ORF2) (FIG. 3A). […]

[2] = tested on: CTL clone 2; assay: Chromium release cytolysis of peptide-pulsed target cells by CTL clone 2; type: cell-based, human; details: peptide titration, 4-h chromium release, E:T ratio of 20:1 (FIG. 7B)
Excerpt: as §1, with “Expression of HLA-A31 on the tumor cells is indicated.” left out
Cytolytic assay was done as previously described (Kawakami, Y et al., 1994, Proc. Natl. Acad. Sci. USA 91:6458–62). […] The cells were washed again, counted, and then mixed with TIL586 or CTL clone 5 at the indicated ratio of effector: targets (E:T). Chromium release was measured after 4 h incubation. […] Percentage of specific lysis was determined from the equation (A−B)/(C−B)×100 where A is lysis of 586EBV B cells by TIL586 or clone 5 in the presence of a peptide, B is spontaneous release from 586EBV B cells in presence of the same peptide but in the absence of effector cells, and C is the maximum chromium release. […]

ASGPGGGAPR (listed as Homo sapiens) [ESO10-53]
Recognition by CTL clone 2, in words [1]: did not recognize | Recognition by CTL clone 2, in words ([1]; listed as ESO 10-53): failed to recognize | Lysis of peptide-pulsed 1510EBV by CTL clone 2 [2]: failed to lyse
